Source: patent US20140329863A1 (priority 2011, published 2014)
≈ marks a conversion by molar mass, not a printed value. Like-named read-outs stand apart in the source and are kept apart here.

Tests used:
[1] = Single-dose pharmacokinetic studies in female FVB mice (PO, IV, IP); format: in vivo, mouse; conditions: single 40 mg/kg oral dose
Experimental: For in-vivo pharmacokinetic studies, compounds were dissolved in a formulation containing 20% propylene glycol, 5% ethanol, 5% labrosol, and 70% polyethylene glycol 400 (PEG400) and administered by oral gavage to female FVB mice weighing ˜25 g. At specified time points after dosing (0.25, 0.5, 1, 2, 4, 6, and 24 h), 2 animals were euthanized by CO2, and ˜1 mL blood (by cardiac puncture) and brain samples were collected. The heparinized blood samples were centrifuged to obtain plasma, which was stored at −80° C. until analysis. Brain samples were weighed, diluted […] with water, and then homogenized using a Precellys 24 tissue homogenizer. Brain homogenates (20% wt/vol) were stored at −80° C. until analysis. Pharmacokinetic protocols involving animals were all reviewed and approved by the UCSF institutional animal care and use committee (IACUC).
(§1) Plasma and brain homogenate samples were extracted using a protein-precipitation method and analyzed by specific LC/MS/MS methods developed for each compound dosed in vivo. The analytical method accuracy and precision were monitored by analyzing quality control (QC) samples that were prepared and treated using the same methods as calibration standards for the plasma or brain homogenate samples.
The data were used to calculate the area under the concentration-time curve (AUClast) by noncompartmental analysis with sparse sampling performed using Phoenix WinNonlin 6.1 software (Pharsight, Mountain View, Calif.).
Pharmacokinetic protocols employing mice were reviewed and approved by the UCSF Institutional Animal Care and Use Committee (IACUC). Female FVB mice, weighing approximately 25 g, were used for all in vivo pharmacokinetic studies. Mice were housed with free access to food and water, and were maintained on 12-h light/dark cycles for 1 week before dosing studies were initiated.
For the single-dose of 40 mg/kg, compounds were dissolved in a formulation containing 5% propylene glycol, […] α-tocopheryl polyethylene glycol 1000 succinate (TPGS) and 70% polyethylene glycol 400 (PEG400), and administered by oral gavage. Two animals per time point were used. At specified time points after dosing (0.5, 1, 2, 4, 6, and 24 h), animals were euthanized by CO2, and blood for plasma (by cardiac puncture) and brain samples were collected. The heparinized blood samples were centrifuged to obtain plasma. Brain samples were weighed, diluted 10-fold with water, and then homogenized using a Precellys 24 tissue homogenizer. The brain and plasma samples were flash-frozen on dry ice and then stored at −80° C. until analysis. For the single-dose administration at 10 mg/kg, compounds were dissolved in a formulation containing 20% propylene glycol, 5% ethanol, 5% labrosol, and 70% PEG400, and administered by oral gavage. Two animals per time point were used. At specified time points after dosing (0.25, 0.5, 1, 2, 4, 6, and 24 h), animals were euthanized by CO2, and blood for plasma (by cardiac puncture) and brain samples were collected. The heparinized blood samples were centrifuged to obtain plasma. Brain samples were weighed, diluted five-fold with water, and then homogenized using a Precellys 24 tissue homogenizer. The brain and plasma samples were flash-frozen on dry ice and then stored at −80° C. until analysis.
Compounds were administered through tail vein injection. Two animals per time point were used. At specified time points after dosing (5 min, 0.25, 0.5, 1, 2, 4, and 6 h), animals were euthanized by CO2. Blood and brain samples were obtained and processed as described above for the oral dosing at 40 mg/kg.
as §1, with “by” for “and treated using”, “as” for “as calibration standards for”, “samples. […]” for “samples.”

[2] = tested on: PrP^Sc in dividing ScN2a-cl3 cells; format: cell-based, mouse; design: Dividing ELISA pEC50 (μM) 1st Expt. / Dividing ELISA pEC50 (μM) 2nd Expt. / Dividing ELISA pEC50 (μM) 3rd Expt. / Dividing ELISA pEC50 (μM) Mean: unit not given here
[3] = Single-dose pharmacokinetics in FVB mice (oral gavage, IV); conditions: single oral dose, FVB mice, brain
[4] = not given; remark: listed apart in the source
Binding in human plasma = conditions: 1 μM; mean ± SD, n = 3 (warfarin n = 2)
[5] = tested on: PrP^Sc in nondividing ScN2a-cl3 cells; format: cell-based, mouse; conditions: read-out: Non-Dividing ELISA EC50 (μM) Mean (n = 3); ScN2a-c13 non-dividing cells; mean n = 3
N2a-cl3 cells [6] = conditions: read-out: Dividing Calcein EC50 (μM) Mean (n = 3)
MDCK-MDR1 cells = test: Permeability in MDCK-MDR1 cells; conditions: MDR1-MDCK cell monolayers; for Permeability PA→B: apical to basal; for Permeability PB→A: basal to apical
[7] = Hepatic microsomal stability, rat; conditions: […]
[8] = Multiple-dose (three-day) pharmacokinetic studies in FVB mice, drug in liquid diet; format: in vivo, mouse; conditions: three days in liquid diet, higher doses (up to 210 mg/kg/day)
Experimental: Aminothiazole analog (e.g., 4.5 g of 27) was added to 15 mL of pure PEG400, vortexed and sonicated to ensure dissolution, then stored at −4° C. until needed. This highly concentrated PEG400 solution was subsequently diluted to final dosing concentrations, where the volume added was composed of homogenized solid rodent feed, cocoa (taste masking agent), and water. Wild-type FVB mice weigh ˜25 gm and typically drink 20 mL of liquid diet per day, allowing an estimate of daily drug consumption. A single dosing cohort consisted of three mice in a shared cage and liquid diet was provided at the start of the study in sufficient volume to last for the entire three-day trial (˜200 mL). At the end of the three-day dosing period, animals were euthanized by CO2, followed by collection of plasma (cardiac puncture) and removal of whole brain. Heparinized blood was centrifuged to separate plasma and both plasma and brain samples were stored at −80° C. prior to analysis. Plasma samples were prepared for analysis by precipitating proteins and reconstituting the remaining fraction with HPLC mobile phase. Brain samples were typically prepared by four-fold dilution with water after weighing, then homogenized using bead-beater or Polytron™ resulting in a highly concentrated solution that was further diluted with mobile phase as appropriate in preparation for bioanalytical analysis using LC-MS. Analysis was by LC-MS (Shimadzu dual-HPLC pumps, C18 analytical column, with detection using an Applied Biosystems API-4000 triple quadrupole mass spectrometer).
Ten compounds were selected from among the 34 2-AMTs for three-day multiple-dose PK studies at PO doses ranging from 40-210 mg/kg. Selection was based on diversity in potency, chemical structure, and a range of physicochemical properties. We used a liquid diet to facilitate easy drug administration, as well as serve as the daily source of all water and food. This approach was chosen because the mouse bioassay studies that would be used to assess drug effects on survival would be expected to run for 110 to 400 days, or more; gavage dosing for such a long period is not feasible and more stressful to mice. For the multiple-dose PK studies, 4.5 g of the 2-AMT analogs was added to 15 mL of pure PEG400, vortexed and sonicated to ensure dissolution, then stored at −4° C. until needed. This highly concentrated PEG400 solution was subsequently diluted to final dosing concentrations and added to the rodent liquid diet, cocoa (taste-masking agent), and water.
Wild-type FVB mice weigh ˜25 g and typically drink 20 mL of liquid diet per day, allowing an estimate of daily drug consumption. A single dosing cohort consisted of three mice in a shared cage and liquid diet was provided at the start of the study in sufficient volume (˜200 mL) to last for the entire three-day period. At the end of the dosing period, animals were euthanized by CO2, followed by collection of plasma (cardiac puncture) and removal of whole brain. Samples were processed and stored as described above for the 10 mg/kg single-dose studies.
Plasma and brain homogenate samples were extracted using a protein-precipitation method and analyzed by specific LC/MS/MS methods developed for each compound dosed in vivo. The analytical method accuracy and precision were monitored by analyzing quality control (QC) samples that were prepared by the same methods as the plasma or brain homogenate samples. The brain and plasma concentration data were used to calculate the maximal concentration (Cmax), area under the concentration-time curve (AUClast), and absolute bioavailability (% F) by noncompartmental analysis with sparse sampling performed using Phoenix WinNonlin 6.1 software (Pharsight, Mountain View, Calif.).

[9] = tested on: PrP^Sc in dividing ScN2a-c13 cells; conditions: read-out: EC50 (ELISA), reduction of PrP^Sc load; dividing ScN2a-c13 cells
[10] = […]
N2a-cl3 cells [11] = test: cells; conditions: Mus musculus, N2a-cl3, read-out: Dividing Calcein EC50 (μM) Mean (n = 3)
[12] = Table 29, 2-AMT analogs tested for potency, usually n = 3 or more
[13] = pH 1.2, simulated gastric fluid
[14] = ScN2a-cl3 dividing cells, 1st determination
[15] = ScN2a-cl3 dividing cells, 2nd determination
[16] = ScN2a-cl3 dividing cells, 3rd determination
[17] = ScN2a-cl3 dividing cells, mean of three determinations

Cc1ccnc(Nc2nc(-c3ccccc3O)cs2)c1 [IND48, 2-[2-(4-Methyl-pyridin-2-ylamino)-thiazol-4-yl]-phenol]
AUC0->last, brain exposure [1]: lowest AUClast values | EC50 ([2]; AMT analogs tested for potency): > 10 µM | EC50 [2, 12]: > 10 µM | melting point: 249 to 250 °C | Brain exposure (AUClast) ranking [3]: lowest AUClast values

Cc1ccnc(Nc2nc(-c3ccc(O)cc3)cs2)c1 [IND49, 4-[2-(4-Methyl-pyridin-2-ylamino)-thiazol-4-yl]-phenol]
AUC0->last, brain exposure [1]: lowest AUClast values | EC50 ([2]; AMT analogs tested for potency): > 10 µM | EC50 [2, 12]: > 10 µM | Brain exposure (AUClast) ranking [3]: lowest AUClast values

Cc1cccc(Nc2nc(-c3ccc(-c4ccnc(N(C)C)c4)cc3)cs2)n1 [IND-0116095]
Analiza solubility (μM) pH 1.2 [4]: >150 μM | solubility (physchem; [13]): > 150 µM | solubility (physchem; pH 7.4, aqueous buffer): 1.6 µM (≈ 0.62 µg/mL)

Cc1cccc(Nc2nc(-c3ccc(-c4ccnc(OC(C)C)c4)cc3)cs2)n1 [IND-0116096]
Analiza solubility (μM) pH 1.2 [4]: >150 μM | solubility (physchem; [13]): > 150 µM | solubility (physchem; pH 7.4, aqueous buffer): 3.1 µM (≈ 1.25 µg/mL)

COCCOc1cc(-c2ccc(-c3csc(Nc4cccc(C)n4)n3)cc2)ccn1 [IND-0116099]
Analiza solubility (μM) pH 7.4 [4]: <0.5 μM | solubility (physchem; [13]): 126 µM (≈ 52.5 µg/mL) | solubility (physchem; pH 7.4, aqueous buffer): < 0.5 µM

Cc1cccc(Nc2nc(-c3ccc(-c4ccnc(OCC#N)c4)cc3)cs2)n1 [IND-0116138]
Analiza solubility (μM) pH 1.2 [4]: >150 μM | Analiza solubility (μM) pH 7.4 [4]: <0.4 μM | solubility (physchem; [13]): > 150 µM | solubility (physchem; pH 7.4, aqueous buffer): < 0.4 µM

CN(C)c1cccc(Nc2nc(-c3ccc(-c4ccccc4)cc3)cs2)n1 [IND-0116142]
Analiza solubility (μM) pH 7.4 [4]: <0.5 μM | solubility (physchem; [13]): 16.1 µM (≈ 6 µg/mL) | solubility (physchem; pH 7.4, aqueous buffer): < 0.5 µM

CC(=O)CC(c1ccccc1)c1c(O)c2ccccc2oc1=O (stereo not drawn) [Warfarin, warfarin, reference compound]
Unbound (%), Human Plasma (Binding in human plasma): 0.68 ± 0.0023%

Cc1ccc(Nc2nc(-c3ccncc3)cs2)nc1 [compound 23]
EC50 ([2]; ScN2a-cl3 cells, read-out: Antiprion activity ScN2a-cl3 EC50): 1.57 µM | Dividing ELISA pEC50 (μM) 1st Expt. [2, 14]: 5.95 | EC50 ([2]; ScN2a-cl3 dividing cells, 1st determination, read-out: Dividing ELISA EC50 (μM) 1st Expt.): 1.12 µM | Dividing ELISA pEC50 (μM) 2nd Expt. [2, 15]: 5.76 | EC50 ([2]; ScN2a-cl3 dividing cells, 2nd determination, read-out: Dividing ELISA EC50 (μM) 2nd Expt.): 1.75 µM | Dividing ELISA pEC50 (μM) 3rd Expt. [2, 16]: 5.73 | EC50 ([2]; ScN2a-cl3 dividing cells, 3rd determination, read-out: Dividing ELISA EC50 (μM) 3rd Expt.): 1.85 µM | Dividing ELISA pEC50 (μM) Mean [2, 17]: 5.81 | EC50 ([2]; ScN2a-cl3 dividing cells, mean of three determinations, read-out: Dividing ELISA EC50 (μM) Mean): 1.57 µM | EC50 [5]: > 32 µM | EC50 (N2a-cl3 cells [6]): > 32 µM | Permeability PA→B (MDCK-MDR1 cells): 32.6 10^−6 cm/sec | Permeability PB→A (MDCK-MDR1 cells): 42.3 10^−6 cm/sec | Microsome stability T1/2 [7]: 0.333 h

Cc1ccc(Nc2nc(-c3cc(-c4ccccc4)no3)cs2)nc1 [compound 27, (5-Methylpyridin-2-yl)-[4-(3-phenylisoxazol-5-yl)-thiazol-2-yl]-amine]
mean brain concentration in excess of EC50 [8]: ≤ 25 fold | Dividing ELISA pEC50 (μM) 1st Expt. [2, 14]: 5.96 | Dividing ELISA pEC50 (μM) 2nd Expt. [2, 15]: 6.13 | Dividing ELISA pEC50 (μM) 3rd Expt. [2, 16]: 6.00 | Dividing ELISA pEC50 (μM) Mean [2, 17]: 6.03 | EC50 ([2]; read-out: Antiprion activity ScN2a-cl3 EC50, ScN2a-cl3 cells): 0.94 µM | EC50 ([2]; read-out: Dividing ELISA EC50 (μM) 1st Expt., ScN2a-cl3 dividing cells, 1st determination): 1.09 µM | EC50 ([2]; read-out: Dividing ELISA EC50 (μM) 2nd Expt., ScN2a-cl3 dividing cells, 2nd determination): 0.747 µM | EC50 ([2]; read-out: Dividing ELISA EC50 (μM) 3rd Expt., ScN2a-cl3 dividing cells, 3rd determination): 0.994 µM | EC50 ([2]; read-out: Dividing ELISA EC50 (μM) Mean, ScN2a-cl3 dividing cells, mean of three determinations): 0.945 µM | EC50 [5]: > 32 µM | EC50 [9]: 0.94 µM | metabolic stability (in words) [10]: excellent stability | EC50 (N2a-cl3 cells [11]): > 32 µM | Permeability PA→B (MDCK-MDR1 cells): 6.8 10^−6 cm/sec | Permeability PB→A (MDCK-MDR1 cells): 8.3 10^−6 cm/sec | Microsome stability T1/2 [7]: 2.52 h
